Results taken from ChEMBL document CHEMBL5608175, “Lipid-conjugated nucleoside monophosphate and monophosphonate prodrugs: A versatile drug delivery paradigm” (Eur J Med Chem, 2024).

Columns and labels:
[1] = Metabolic stability in human liver microsomes assessed as half life; format: ADME, Microsome; details: for half-life: liver microsomes
[2] = target: Human immunodeficiency virus type 1 reverse transcriptase (Human immunodeficiency virus 1, UniProt Q72547); assay: Inhibition of HIV-1 reverse transcriptase
[3] = Cytotoxicity against African green monkey Vero E6 cells; format: toxicity, cell-based, Vero C1008; details: chlorocebus sabaeus
SARS-CoV-2 [4] = assay: Antiviral activity against SARS-CoV-2 2019-nCoV/USA_WA1/2020 infected in African green monkey Vero E6 cells assessed as reduction in viral replication pre-treated with compound for 30 mins followed by viral infection and measured after 48 hrs; format: functional, organism-based; details: Severe acute respiratory syndrome coronavirus 2, 2019-nCoV/USA_WA1/2020, Vero C1008
SARS-CoV-2 [5] = assay: Antiviral activity against SARS-CoV-2 2019-nCoV/USA_WA1/2020 infected in human PSC-derived lung epithelial cell assessed as reduction in viral replication pre-treated with compound for 30 mins followed by viral infection and measured after 48 hrs; format: functional, organism-based; details: Severe acute respiratory syndrome coronavirus 2, 2019-nCoV/USA_WA1/2020, Epithelial cell
SARS-CoV-2 [6] = assay: Antiviral activity against SARS-CoV-2 2019-nCoV/USA_WA1/2020 infected in human Calu-3 cells assessed as reduction in viral replication pre-treated with compound for 30 mins followed by viral infection and measured after 48 hrs; format: functional, organism-based; details: Severe acute respiratory syndrome coronavirus 2, 2019-nCoV/USA_WA1/2020, Calu-3
SARS-CoV-2 [7] = assay: Antiviral activity against SARS-CoV-2 2019-nCoV/USA_WA1/2020 infected in human Caco-2 cells assessed as reduction in viral replication pre-treated with compound for 30 mins followed by viral infection and measured after 48 hrs; format: functional, organism-based; details: Severe acute respiratory syndrome coronavirus 2, 2019-nCoV/USA_WA1/2020, Caco-2
SARS-CoV-2 [8] = assay: Antiviral activity against SARS-CoV-2 2019-nCoV/USA_WA1/2020 infected in human Huh7.5 cells assessed as reduction in viral replication pre-treated with compound for 30 mins followed by viral infection and measured after 48 hrs; format: functional, organism-based; details: Severe acute respiratory syndrome coronavirus 2, 2019-nCoV/USA_WA1/2020, Huh7.5
SARS-CoV-2 [9] = assay: Antiviral activity against SARS CoV-2 USA-WA1/2020 clinical isolate infected in human Calu-3 cells assessed as reduction in viral infection; format: functional, organism-based; details: Severe acute respiratory syndrome coronavirus 2, USA-WA1/2020, Calu-3

SMILES | IC50 [2] [nM] | CC50 [3] [nM] | half-life [1] [min] | also measured
CCCCCCCCCCCCCCCCSCCCOP(=O)(O)CO[C@H](C)Cn1cnc2c(N)ncnc21 | 10 | 49800 |  | t1/2 ([1]; microsomes): 42 min
CCCCCCCCCCCCCCCCCCCCOP(=O)(O)CO[C@H](C)Cn1cnc2c(N)ncnc21 | 127 | 13200 | 49 | 
CCCCCCCCCCCCCCCCCCOC[C@@H](COP(=O)(O)OC[C@H]1O[C@@](C#N)(c2ccc3c(N)ncnn23)[C@H](O)[C@@H]1O)OCc1ccccc1 |  |  |  | EC50 (SARS-CoV-2 [4]): 140 nM; EC50 (SARS-CoV-2 [5]): 150 nM; EC50 (SARS-CoV-2 [6]): 300 nM; EC50 (SARS-CoV-2 [7]): 140 nM; EC50 (SARS-CoV-2 [8]): 300 nM
C[C@H](Cn1cnc2c(N)ncnc21)OCP(=O)(O)OCCOCCCCCCCCCCCCCCCC(F)(F)F | 8 | > 100000 | > 120 | 
CCCCOCCCCCOCCCCCOCCCOP(=O)(O)CO[C@H](C)Cn1cnc2c(N)ncnc21 | 32000 | > 100000 |  | 
CCCCCCCCCCCCCCCCCCOC[C@@H](COP(=O)(O)OC[C@H]1O[C@@](C#N)(c2ccc3c(N)ncnn23)[C@H](O)[C@@H]1O)OCc1ccc(OC)c(F)c1 |  |  |  | EC50 (SARS-CoV-2 [9]): 70 nM
C[C@H](Cn1cnc2c(N)ncnc21)OCP(=O)(O)OCCOCCCCCCCCCCCCc1ccc(S(F)(F)(F)(F)F)cc1 | 20 | > 100000 | > 120 | 
CCCCCCCCCCCCCCOCCCCCOP(=O)(O)CO[C@H](C)Cn1cnc2c(N)ncnc21 | 52 | > 100000 | 31 | 
C[C@H](Cn1cnc2c(N)ncnc21)OCP(=O)(O)OCCOCCCCCCCCCCCCCC#CC(F)(F)F | 16 | > 100000 | > 120 | 
CCCCCCCCCCCCCCCCCCOCCOP(=O)(O)CO[C@H](C)Cn1cnc2c(N)ncnc21 | 3 | 53800 | 105 | 
CCCCCCCCCCCCCCCCCOCCOP(=O)(O)CO[C@H](C)Cn1cnc2c(N)ncnc21 | 3 | 69600 | 35 | 
C[C@H](Cn1cnc2c(N)ncnc21)OCP(=O)(O)OCCOCCCCCCCCCCCCCCCCC(F)(F)F | 10 | 85100 | > 120 | 
C[C@H](Cn1cnc2c(N)ncnc21)OCP(=O)(O)OCCOCCCCCCCCCCCCCCC#CC(F)(F)F | 10 | > 100000 | > 120 | 
CCCCCCCCCCCCCCCCCCOC[C@@H](COP(=O)(O)OC[C@H]1O[C@@](C#N)(c2ccc3c(N)ncnn23)[C@H](O)[C@@H]1O)OCc1ccc(C#N)cc1 |  |  |  | EC50 (SARS-CoV-2 [9]): 43 nM
C[C@H](Cn1cnc2c(N)ncnc21)OCP(=O)(O)OCCOCCCCCCCCCCC#Cc1ccc(S(F)(F)(F)(F)F)cc1 | 10 | > 100000 | > 120 | 
CCCCCCCCCCCCCCCOCCCCOP(=O)(O)CO[C@H](C)Cn1cnc2c(N)ncnc21 | 30 | > 100000 | 48 | 
CCCCCCCCCCCCCCCCCCOC[C@@H](COP(=O)(O)OC[C@H]1O[C@@](C#N)(c2ccc3c(N)ncnn23)[C@H](O)[C@@H]1O)OCc1cccc(C#N)c1 |  |  |  | EC50 (SARS-CoV-2 [9]): 34 nM
CCCCCCCCOCCCCCOCCCCCOP(=O)(O)CO[C@H](C)Cn1cnc2c(N)ncnc21 | 4000 | > 100000 | 12 | 
C[C@H](Cn1cnc2c(N)ncnc21)OCP(=O)(O)O [TENOFOVIR ANHYDROUS] | 1600 | 35400 | > 120 | 
